Like-named read-outs stand apart in the source and are kept apart here.
Experiments:
[1] = target: T1, α1 adrenergic receptors of isolated rat deferent canal (Rattus norvegicus, UniProt P43140); test: antagonism with phenylephrine induced contraction of rat deferent canal; parameters: species or system rat (male Wistar); settings: for effect on effect-concentration curves of phenylephrine: FIG. 3; for slope of Schild relation, antagonism with phenylephrine: rat deferent canal
T1 construct: The deferent canals of 12-week old male Wistar rats are removed; from tissue; host or cells: isolated vas deferens (deferent canal) of male Wistar rats
T1 sequence (P43140 1-466): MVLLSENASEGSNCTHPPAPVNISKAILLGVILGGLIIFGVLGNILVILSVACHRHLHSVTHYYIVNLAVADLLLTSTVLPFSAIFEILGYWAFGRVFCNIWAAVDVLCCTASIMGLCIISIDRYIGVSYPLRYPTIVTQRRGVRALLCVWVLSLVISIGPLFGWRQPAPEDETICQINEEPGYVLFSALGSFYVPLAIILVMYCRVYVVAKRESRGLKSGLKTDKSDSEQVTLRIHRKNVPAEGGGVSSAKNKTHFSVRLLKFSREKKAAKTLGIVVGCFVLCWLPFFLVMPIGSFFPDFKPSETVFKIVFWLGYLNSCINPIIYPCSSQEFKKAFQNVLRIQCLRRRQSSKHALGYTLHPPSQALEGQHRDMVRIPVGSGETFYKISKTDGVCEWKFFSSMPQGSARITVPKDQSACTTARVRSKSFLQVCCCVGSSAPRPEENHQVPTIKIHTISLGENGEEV
Method: The deferent canals of 12-week old male Wistar rats are removed.
Each organ is connected to an isometric sensor of tradename Statham, made by Gould Inc., Medical Product Division, under a base tension of 0.5 g. Contractions are recorded by a polygraph of tradename Beckman, made by Beckman. To characterize the α2 blocking effect, the deferent canal is electrically stimulated by rectangular impulses of 2 msec duration, 30 volts, with a frequency of 0.2 Hz delivered by a stimulator of tradename Bioscience (Stimulator 100), made by Palmer. After a rest period of 20-30 minutes, increasing concentrations of clonidine are added to the survival medium over 2 minutes. This permits establishing the relation between the effect and concentration of clonidine. After generating two successive, cumulative effect-concentration curves separated by a rest period of 20 minutes, the antagonist is placed in contact with the isolated organ for 10 minutes and a new effect-concentration relationship is determined.
To characterize the α1 blocking effect, the organ is stimulated by phenylephrine. […] After a rest period of 30 minutes, increasing concentrations of phenylephrine are added in the organ cell over 30 seconds. A first effect-concentration relationship is established. After a washing and a new rest period of 15 mins. wherein the organ returns to the initial tension, a second effect-concentration relationship is effected. The antagonist is placed in contact with the tissue returned to its base tension after washing and a third effect-concentration relationship is determined. […] The apparent dissociation constant (KD), calculated according to Furchgott, is the relation between the molar concentration of antagonist and the relation of equiactive doses of agonist (in the presence and absence of antagonist) -1.

[2] = target: α1 adrenergic receptors of rat cerebral cortex; test: [3H] prazosine binding, rat cerebral cortex (α1); parameters: species or system rat (male Wistar); settings: for Ki: read-out: Prazosine [^3 H] Ki nM, rat cerebral cortex, 0.2 nM [3H] prazosine, 25° C., 30 minutes, at least three experiments ± standard deviation
Method: (§1) The preparation of the cerebral cortex homogenates is made starting from male Wistar rats, age 12 weeks. After decapitation, the brains are rapidly removed and dissected. The tissues are homogenized with the aid of an ultra-turrax in 50 mM of a pH 7.5 Tris-HCl buffer and centrifuged at 40,000 g for ten minutes. The centrifugate is dissolved in buffer and recentrifuged in the same way. All of the operations are carried out at a temperature less than 4° C. The final centrifugate is homogenized in the incubation buffer maintained in melting ice (tris-HCl 50 mM pH 7.5) so as to obtain a final dilution of the cortical tissue of 1/100 (by volume), which corresponds to about 0.5 mg of protein per ml.
(§2) These filters are rinsed 4 times with 5 ml of incubation buffer preserved in ice. The radioactivity retained on the filters is counted by liquid scintillation. The non-specific fixation of the radioactive ligand is evaluated in the presence of 10 μM phentolamine.
(§3) Starting from the inhibition curves for the specific fixation of a ligand to its receptor by increasing quantities of a non-radioactive product, the inhibition constant (Ki) of this product is determined.

[3] = target: T2, α2 adrenergic receptors of rat cerebral cortex (Rattus norvegicus, UniProt P22909); test: [3H] yohimbine binding, rat cerebral cortex (α2); parameters: species or system rat (male Wistar)
T2 construct: The preparation of the cerebral cortex homogenates is made starting from male Wistar rats; from tissue; host or cells: cerebral cortex homogenate of male Wistar rats
T2 sequence (P22909 1-465): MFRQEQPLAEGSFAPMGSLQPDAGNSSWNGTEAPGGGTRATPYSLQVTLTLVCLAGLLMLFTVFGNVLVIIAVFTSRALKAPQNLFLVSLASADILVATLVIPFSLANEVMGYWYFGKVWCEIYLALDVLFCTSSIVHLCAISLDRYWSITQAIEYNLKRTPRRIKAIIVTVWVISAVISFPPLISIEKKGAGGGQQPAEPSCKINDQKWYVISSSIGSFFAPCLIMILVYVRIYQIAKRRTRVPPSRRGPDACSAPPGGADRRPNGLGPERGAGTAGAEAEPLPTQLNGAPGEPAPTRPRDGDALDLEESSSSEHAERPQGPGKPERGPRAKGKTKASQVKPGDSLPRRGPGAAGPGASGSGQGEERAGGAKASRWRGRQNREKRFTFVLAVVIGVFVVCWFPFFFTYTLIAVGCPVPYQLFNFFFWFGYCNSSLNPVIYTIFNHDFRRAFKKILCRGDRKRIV
Method: as §1, §2, §3

[4] = target: T3, α2 adrenergic receptors of isolated rat deferent canal (Rattus norvegicus, UniProt P22909); test: antagonism with clonidine on electrically stimulated rat deferent canal
T3 sequence (P22909 1-465): T2 sequence (P22909 1-465)
Method: Each organ is connected to an isometric sensor of tradename Statham, made by Gould Inc., Medical Product Division, under a base tension of 0.5 g. Contractions are recorded by a polygraph of tradename Beckman, made by Beckman. To characterize the α2 blocking effect, the deferent canal is electrically stimulated by rectangular impulses of 2 msec duration, 30 volts, with a frequency of 0.2 Hz delivered by a stimulator of tradename Bioscience (Stimulator 100), made by Palmer. After a rest period of 20-30 minutes, increasing concentrations of clonidine are added to the survival medium over 2 minutes. This permits establishing the relation between the effect and concentration of clonidine. After generating two successive, cumulative effect-concentration curves separated by a rest period of 20 minutes, the antagonist is placed in contact with the isolated organ for 10 minutes and a new effect-concentration relationship is determined. In preliminary experiments, it was established that the second and third effect-concentration relation with the agonist are identical in the absence of antagonist.
To characterize the α1 blocking effect, the organ is stimulated by phenylephrine. Stimulation of the rat deferent canal produces a rapid contractile response (maximum contraction is obtained in 30 seconds). After a rest period of 30 minutes, increasing concentrations of phenylephrine are added in the organ cell over 30 seconds. A first effect-concentration relationship is established. After a washing and a new rest period of 15 mins. wherein the organ returns to the initial tension, a second effect-concentration relationship is effected. The antagonist is placed in contact with the tissue returned to its base tension after washing and a third effect-concentration relationship is determined. In preliminary experiments, it was established that the second and third effect-concentration relationship of the agonist are identical in the absence of antagonist. […] The apparent dissociation constant (KD), calculated according to Furchgott, is the relation between the molar concentration of antagonist and the relation of equiactive doses of agonist (in the presence and absence of antagonist) -1.
The effect (inhibition of the contractile response) is expressed as a percentage of the maximum effect.

α1 receptors = settings: statement in words, background; cited from earlier work
serotonergic receptor = test: binding sites of [3H] ketanserine
[5] = system: binding sites of [^3 H] nitrendipine (calcium influx blocking agent); test: binding sites of [3H] nitrendipine
[6] = system: α2 adrenergic receptors of rat aorta; test: antagonism of BHT 920 induced contraction of isolated rat aorta; parameters: species or system rat (female Wistar)
Method: The antagonism of ISK7 relative to the contracture-causing effect of BHT 920 (2-amino-6-allyl-5,6,7,8-tetrahydro[4,5-d]thiazolo-4H-azepinedihydrochloride) (α2 adrenergic agonist) on rat aorta is taken as an example. There is antagonism when a substance is capable of partially or totally opposing the effects of an agonistic substance.
Rapidly removed female Wistar rat aorta is received in a Krebs solution containing: NaCl 120 mM; KCl 4.8 mM; NaHCO3 25 mM; glucose 10 mM; CaCl2 1.25 mM; MgSO4 1.19 mM; KH2 PO4 1.14 mM. The aorta, freed of connective and adipose tissue, is cut in hoops of a length of about 1 mm. Each hoop is installed in a 10 ml organ cell containing Krebs liquid at 37°, oxygenated with an oxygen-carbon dioxide mixture (95% O2 and 5% CO2) and connected to an isometric sensor of tradename Statham and made by Gould Inc., Medical Product Division, under a base tension of 2 g. Recording of the contractions is effected with a polygraph of tradename Beckman and made by Beckman. After a rest period (1 h) interrupted by washings, a first effect-concentration relation is established by studying the contraction provoked by addition in the cell of increasing concentrations of BHT 920. After a new rest period interrupted by washings (30 min.) where the organ returns to the initial tension, the antagonist is placed in contact with the vessel for 10 minutes; the a new effect-concentration relation with BHT 920 is established. In preliminary experiments, it was established that the first and second effect-concentration relation of the agonist are identical in the absence of antagonist. […] The displacement increases with ISK concentration. […] The apparent dissociation constant of ISK7, calculated from experiments illustrated in FIG. 1 for a competitive antagonism according to Furchgott R. F. (in Catecholamines, ed. by Blaschko and Muscholl, Springer-Verlag, Berlin, 1972, pp. 283-335) is 1.2×10^-7 M for the two concentrations employed. […]

H1 histaminic receptor = test: binding sites of [3H] pyrilamine
D2 dopaminergic receptor = test: binding sites of [3H] dexetimide

## COc1cc2nc(N3CCN(C(=O)c4ccco4)CC3)nc(N)c2cc1OC [Prazosine, reference compound]
[1]
  effect on effect-concentration curves of phenylephrine: shifted toward the right without depression of the maximum
  slope of Schild relation, antagonism with phenylephrine: 0.99

## COc1cc2nc(N3CCN(C(=O)c4ccco4)CC3)nc(N)c2cc1OC [Prazosine [^3 H], reference compound]
[2]; read-out: KD of Prazosine [^3 H], radioligand
  Kd: 0.14 nM

## COc1cc(N)c(CN2CCc3ccccc3C2)cc1OC [ISK18, 2-(2-amino-4,5-dimethoxybenzyl)-1,2,3,4-tetrahydroisoquinoline]
[2]
  Ki: 3220 ± 70 nM
[3]
  Ki: 220 ± 75 nM

## COc1ccc2c(c1)CCN(Cc1ccc(Cl)cc1N)C2 [ISK31, 2-(2-amino-4-chlorobenzyl)-6-methoxy-1,2,3,4-tetrahydroisoquinoline]
[2]
  Ki: 1800 ± 330 nM
[3]
  Ki: 155 ± 35 nM

## Nc1cc(Cl)ccc1CN1CCc2ccccc2C1 [ISK25, 2-(2-amino-4-chlorobenzyl)-1,2,3,4-tetrahydroisoquinoline]
[2]
  Ki: > 30000 nM
[3]
  Ki: 1400 ± 375 nM

## COc1cc2c(cc1OC)CN(Cc1ccccc1N)CC2 [ISK17, 2-(2-aminobenzyl)-6,7-dimethoxy-1,2,3,4-tetrahydroisoquinoline]
[2]
  Ki: 3400 ± 300 nM
[3]
  Ki: 1700 ± 300 nM

## O=[N+]([O-])c1cc(Cl)ccc1CN1CCc2ccccc2C1 [ISK24, 2-(2-nitro-4-chlorobenzyl)-1,2,3,4-tetrahydroisoquinoline]
[2]
  Ki: > 30000 nM
[3]
  Ki: 2740 ± 1020 nM

## COC(=O)[C@@H]1[C@H]2C[C@H]3c4[nH]c5ccccc5c4CCN3C[C@@H]2CC[C@@H]1O [Yohimbine, reference compound]
[4]
  effect on effect-concentration curves of clonidine: shift toward the right of the effect-concentration curves of agonist without diminution of the maximum effect
  slope of Schild relation, antagonism with clonidine: 1.15
[2]
  Ki: 350 ± 30 nM
α1 receptors
  affinity for α1 receptors: only slight affinity
[1]
  effect on effect-concentration curves of phenylephrine: shifted toward the right without depression of the maximum
  slope of Schild relation, antagonism with phenylephrine: 0.85

## COc1ccc2c(c1)CCN(Cc1cc(OC)c(OC)cc1N)C2 [ISK7, 2-(2-amino-4,5-dimethoxybenzyl)-6-methoxy-1,2,3,4-tetrahydroisoquinoline]
Serotonergic receptor
  affinity for the binding sites of [^3 H] ketanserine: no affinity
[4]
  Kb: 200 nM
[4]; FIG. 2, ISK7 100-3000 nM, prazosine 1000-10,000 nM, yohimbine 30-1000 nM
  effect on effect-concentration curves of clonidine: shift toward the right of the effect-concentration curves of agonist without diminution of the maximum effect
[4]; clonidine (α2) versus phenylephrine (α1)
  antagonist selectivity on isolated rat deferent canal: selective, α2 type adrenergic antagonist
[4]; rat deferent canal, electric stimulation
  slope of Schild relation, antagonism with clonidine: 1.05
[2]
  Ki: 990 ± 50 nM
[5]
  affinity for the binding sites of [^3 H] nitrendipine: no affinity
[6]; according to Furchgott, competitive antagonism, two concentrations (10^-7 and 10^-6), read-out: apparent dissociation constant (antagonism of BHT 920, rat aorta)
  Kd: 120 nM
[6]; antagonism with BHT 920
  pA2 on aorta: 6.9
[6]; rat aorta, 10 minutes contact
  effect on effect-concentration curve of BHT 920: shift to the right of the effect-concentration curve of the agonist, without depression of the maximum
H1 histaminic receptor
  affinity for the binding sites of [^3 H] pyrilamine: no affinity
[3]
  Ki: 63 ± 20 nM
[1]
  effect on effect-concentration curves of phenylephrine: shifted toward the right without depression of the maximum
  slope of Schild relation, antagonism with phenylephrine: very different than 1
[1]; read-out: log of KD, antagonism with phenylephrine (pA2 cannot be calculated) (converted)
  Kd: 2880 nM
[1]; α1 versus α2, rat deferent canal
  inhibition of the effect of phenylephrine relative to clonidine: only at concentrations very significantly higher than the concentrations at which it competitively inhibits the effect of α2 selective agonist, clonidine
D2 dopaminergic receptor
  affinity for the binding sites of [^3 H] dexetimide: no affinity

## CNc1cc(OC)c(OC)cc1CN1CCc2cc(OC)c(OC)cc2C1 [ISK23, 2-(2-methylamino-4,5-dimethoxybenzyl)-6,7-dimethoxy-1,2,3,4-tetrahydroisoquinoline]
[2]
  Ki: > 10000 nM
[3]
  Ki: 2670 ± 400 nM

## COc1cc(N)c(CN2CCc3cc(OC)c(OC)cc3C2)cc1OC [ISK4, 2-(2-amino-4,5-dimethoxybenzyl)-6,7-dimethoxy-1,2,3,4-tetrahydroisoquinoline]
[2]
  Ki: 2900 ± 400 nM
[3]
  Ki: 810 ± 110 nM

From patent US4925943A, “2-(2-aminobenzyl or 2-nitrobenzyl)-1,2,3,4-tetrahydroisoquinoline derivatives” (priority 1986, dated 1990)
